# Experimental data published in ChEMBL document CHEMBL1129297 (J Med Chem, 1996).
# How the values were obtained:
# [1] = molecular target: T1, 5-hydroxytryptamine receptor 1D (Homo sapiens, UniProt P28221)
# [2] = molecular target: T2, 5-hydroxytryptamine receptor 1B (Homo sapiens, UniProt P28222); experiment: Displacement of [3H]-5-HT from human 5-hydroxytryptamine 1D receptor beta
# [3] = molecular target: T3, 5-hydroxytryptamine receptor 1A (Homo sapiens, UniProt P08908)
# T3 sequence (P08908 whole entry): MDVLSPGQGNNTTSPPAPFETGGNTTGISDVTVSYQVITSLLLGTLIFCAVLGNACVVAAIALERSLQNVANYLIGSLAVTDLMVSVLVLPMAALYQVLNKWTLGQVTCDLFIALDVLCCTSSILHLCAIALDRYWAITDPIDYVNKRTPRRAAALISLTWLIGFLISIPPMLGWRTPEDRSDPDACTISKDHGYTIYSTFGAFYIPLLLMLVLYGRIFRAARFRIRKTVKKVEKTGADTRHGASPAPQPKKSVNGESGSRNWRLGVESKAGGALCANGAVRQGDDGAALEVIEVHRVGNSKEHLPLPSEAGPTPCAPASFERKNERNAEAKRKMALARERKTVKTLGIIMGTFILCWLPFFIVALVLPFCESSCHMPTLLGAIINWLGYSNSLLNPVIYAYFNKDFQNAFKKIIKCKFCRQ
# [4] = molecular target: T2, 5-hydroxytryptamine receptor 1B
# [5] = molecular target: T2, 5-hydroxytryptamine receptor 1B; experiment: Binding affinity towards cloned human 5-hydroxytryptamine 1D receptor was determined using […] as radioligand
# [6] = molecular target: T1, 5-hydroxytryptamine receptor 1D; experiment: Binding affinity of compound against 5-HT1Dalpha Binding affinity of compound against 5-HT1D alpha receptors in human
# [7] = organism: Cavia porcellus; experiment: Dissociation constant using guinea pig caudate membrane homogenate.; format: ADME
# T2 sequence (P28222 whole entry): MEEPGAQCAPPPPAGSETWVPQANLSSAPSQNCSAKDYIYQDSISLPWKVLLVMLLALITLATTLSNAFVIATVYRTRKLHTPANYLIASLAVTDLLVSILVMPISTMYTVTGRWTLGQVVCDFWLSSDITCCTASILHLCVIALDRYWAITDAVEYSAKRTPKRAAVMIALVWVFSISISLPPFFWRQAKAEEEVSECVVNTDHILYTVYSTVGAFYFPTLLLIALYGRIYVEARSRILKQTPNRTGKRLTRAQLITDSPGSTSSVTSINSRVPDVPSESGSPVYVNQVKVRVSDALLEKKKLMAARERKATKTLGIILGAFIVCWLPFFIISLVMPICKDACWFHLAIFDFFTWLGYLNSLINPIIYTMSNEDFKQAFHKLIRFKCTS
# T1 sequence (P28221 whole entry): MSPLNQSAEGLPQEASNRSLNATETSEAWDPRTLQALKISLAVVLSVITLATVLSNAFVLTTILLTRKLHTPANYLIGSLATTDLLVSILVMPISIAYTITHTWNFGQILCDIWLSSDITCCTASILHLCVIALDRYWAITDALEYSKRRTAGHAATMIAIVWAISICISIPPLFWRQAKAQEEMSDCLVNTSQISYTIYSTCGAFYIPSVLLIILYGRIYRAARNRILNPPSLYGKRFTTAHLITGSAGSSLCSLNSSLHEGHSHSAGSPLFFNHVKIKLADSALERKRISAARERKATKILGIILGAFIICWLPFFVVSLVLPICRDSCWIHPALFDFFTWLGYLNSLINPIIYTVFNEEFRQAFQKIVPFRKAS
SMILES,Ki [1],Ki [3],also measured
COc1ccc2[nH]c3c(c2c1)CC(N)CC3 (configuration not stated),1.19 µM,–,Ki [2]: 0.342 µM
CC(C)(C)CCCCCCCOc1ccc2[nH]cc(CCN)c2c1,–,0.063 µM,–
CC(C)CCCCCCOc1ccc2[nH]cc(CCN)c2c1,0.042 µM,–,–
CCCCCCOc1ccc2[nH]c3c(c2c1)CC(N)CC3 (configuration not stated),1.1 µM,–,Ki [4]: 0.188 µM
CCCCCCCOc1ccc2[nH]cc(CCN)c2c1,0.0049 µM,0.038 µM,–
COc1ccc2[nH]cc(CCN)c2c1 [5-METHOXYTRYPTAMINE],–,0.0032 µM,–
CCCCCCCCCCc1ccc2[nH]c3c(c2c1)CC(N)CC3 (configuration not stated),–,–,Ki [5]: > 1 µM
CC(=O)c1ccc2[nH]cc(CCN)c2c1 [ACETRYPTINE],–,0.0013 µM,–
CCc1ccc2[nH]cc(CCN)c2c1,–,0.02 µM,–
CCCCCOc1ccc2[nH]cc(CCN)c2c1,0.0015 µM,0.042 µM,–
CCCCCCCCCOc1ccc2[nH]cc(CCNCCCC)c2c1,0.223 µM,1.55 µM,–
COc1ccc2[nH]c3c(c2c1)CC(N(C)C)CC3 (configuration not stated),–,–,Ki [4]: > 1 µM
CCCCCCCCOc1ccc2[nH]cc(CCN)c2c1,0.0016 µM,–,–
NCCc1c[nH]c2ccc(OCCCCC3CCCCC3)cc12,0.055 µM,0.8 µM,–
CCc1ccc2[nH]cc(CCN(C)C)c2c1,–,0.015 µM,–
CCCCCCCCCOc1ccc2[nH]c3c(c2c1)CC(N)CC3 (configuration not stated),–,–,Ki [4]: 0.172 µM; Ki [6]: 2.35 µM
CCCCCCCCCCOc1ccc2[nH]cc(CCN)c2c1,0.042 µM,0.575 µM,–
NC(=O)c1ccc2[nH]c3c(c2c1)CC(N)CC3 (configuration not stated),–,–,Ki [4]: 0.01 µM; pKD [7]: 8
CCCCCCCCCOc1ccc2[nH]cc(CCN(C)C)c2c1,–,0.575 µM,–
CCCCCCCCCCc1ccc2[nH]cc(CCN)c2c1,0.21 µM,–,–
CCCOc1ccc2[nH]cc(CCN)c2c1,–,0.088 µM,–
CC(C)(C)CCCCCCOc1ccc2[nH]cc(CCN)c2c1,0.016 µM,0.92 µM,–
CCCCCCCCCOc1ccc2[nH]c3c(c2c1)CCN(C)C3,–,–,Ki [5]: > 1 µM
CCCCCCCCCCCOc1ccc2[nH]cc(CCN)c2c1,0.069 µM,0.885 µM,–
CCC(=O)Oc1ccc2[nH]cc(CCN(C)C)c2c1,–,0.405 µM,–
CCCCCCCCC(=O)Oc1ccc2[nH]cc(CCN(C)C)c2c1,–,0.0093 µM,–
